Laboratory results published in patent US20250041429A1, “COMPOUND HAVING BTK PROTEIN DEGRADATION ACTIVITY, AND MEDICAL USES THEREOF” (UBIX THERAPEUTICS, INC., priority 2021, published 2025).

Target: T1, BTK protein (Homo sapiens, UniProt Q06187)
T1 construct: endogenous in cells; host or cells: TMD-8 cells
Experiment: Measurement of BTK protein degradation ability in TMD-8 cells (Western blotting)
Format: cell-based
Conditions: harvested after 24 hours; for BTK degradation (%) 1 nM: compound 1 nM; for BTK degradation (%) 10 nM: compound 10 nM; for BTK degradation (%) 100 nM: compound 100 nM
Method in brief: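 BTK levels were measured by immunoblotting of equal-protein RIPA lysates, normalized to GAPDH or β-actin, with chemiluminescent or infrared detection. Lysates came from TMD-8 cells exposed to compound for 24 h at final concentrations of 0.1, 1, 10 μM or 0.0001–0.1 μM, against a DMSO control.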

T1 sequence (Q06187 whole entry): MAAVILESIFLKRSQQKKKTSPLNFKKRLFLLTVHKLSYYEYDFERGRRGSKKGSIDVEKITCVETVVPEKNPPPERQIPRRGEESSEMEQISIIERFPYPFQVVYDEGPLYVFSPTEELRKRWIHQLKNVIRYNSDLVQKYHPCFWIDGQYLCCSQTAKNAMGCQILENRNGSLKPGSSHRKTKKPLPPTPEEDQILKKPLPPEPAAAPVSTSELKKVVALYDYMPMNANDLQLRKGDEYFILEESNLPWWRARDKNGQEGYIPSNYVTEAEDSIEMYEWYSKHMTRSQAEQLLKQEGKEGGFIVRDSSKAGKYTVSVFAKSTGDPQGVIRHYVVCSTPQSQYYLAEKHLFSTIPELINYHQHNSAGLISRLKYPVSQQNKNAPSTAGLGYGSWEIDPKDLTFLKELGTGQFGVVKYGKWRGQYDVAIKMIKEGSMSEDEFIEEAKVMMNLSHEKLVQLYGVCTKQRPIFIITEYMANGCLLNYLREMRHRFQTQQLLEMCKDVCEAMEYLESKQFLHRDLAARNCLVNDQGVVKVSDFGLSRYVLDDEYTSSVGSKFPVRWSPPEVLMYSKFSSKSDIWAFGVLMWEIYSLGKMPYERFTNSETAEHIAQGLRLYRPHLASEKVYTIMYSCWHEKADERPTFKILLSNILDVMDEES

| SMILES | BTK degradation (%) 1 nM [%] | BTK degradation (%) 10 nM [%] | BTK degradation (%) 100 nM [%] |
| --- | --- | --- | --- |
| Cc1cc(-c2ccnc(Nc3cnn(C4CCN(CC5CCN(c6ccc7c(c6)C(=O)N(C6CCC(=O)NC6=O)C7=O)CC5)CC4)c3)n2)ccc1CNC(=O)c1cnn(C(C)(C)C)c1 (stereo not drawn) [Example 37, 1-(tert-butyl)-N-(4-(2-((1-(1-((1-(2-(2,6-dioxopiperidin-3-yl)-1,3-dioxoisoindolin-5-yl)piperidin-4-yl)methyl)piperidin-4-yl)-1H-pyrazol-4-yl)amino)pyrimidin-4-yl)-2-methylbenzyl)-1H-pyrazole-4-carboxamide] | 54.5 | 92.5 | 99 |
| Cc1cc(-c2ccnc(Nc3cnn(C4CCN(CC5CCN(c6ccc7c(c6)C(=O)N(C6CCC(=O)NC6=O)C7=O)CC5)CC4)c3)n2)ccc1CNC(=O)c1cn(C(C)(C)C)nn1 (stereo not drawn) [Example 39, 1-(tert-butyl)-N-(4-(2-((1-(1-((1-(2-(2,6-dioxopiperidin-3-yl)-1,3-dioxoisoindolin-5-yl)piperidin-4-yl)methyl)piperidin-4-yl)-1H-pyrazol-4-yl)amino)pyrimidin-4-yl)-2-methylbenzyl)-1H-1,2,3-triazole-4-carboxamide] | 65.5 | 93.5 | 98.5 |
| Cc1cc(-c2ccnc(Nc3cnn(C4CCN(CC5CN(c6ccc7c(c6)C(=O)N(C6CCC(=O)NC6=O)C7=O)C5)CC4)c3)n2)ccc1CNC(=O)c1cn(C(C)(C)C)nn1 (stereo not drawn) [Example 40, 1-(tert-butyl)-N-(4-(2-((1-(1-((1-(2-(2,6-dioxopiperidin-3-yl)-1,3-dioxoisoindolin-5-yl)azetidin-3-yl)methyl)piperidin-4-yl)-1H-pyrazol-4-yl)amino)pyrimidin-4-yl)-2-methylbenzyl)-1H-1,2,3-triazole-4-carboxamide] | 69.5 | 95.5 | 98 |
| Cc1cc(-c2ccnc(Nc3ccc(N4CCN(CC5CCN(c6cccc(OC7CCC(=O)NC7=O)c6)CC5)CC4)cc3)n2)ccc1CNC(=O)N1CC(OC(C)C)C1 (stereo not drawn) [Example 42, N-(4-(2-((4-(4-((1-(3-((2,6-dioxopiperidin-3-yl)oxy)phenyl)piperidin-4-yl)methyl)piperazin-1-yl)phenyl)amino)pyrimidin-4-yl)-2-methylbenzyl)-3-isopropoxyazetidine-1-carboxamide] | 60.5 | 97.5 | 100.0 |
| Cc1cc(-c2ccnc(Nc3ccc(N4CCN(CC5CCN(c6ccc(OC7CCC(=O)NC7=O)cc6)CC5)CC4)cc3)n2)ccc1CNC(=O)N1CC(OC(C)C)C1 (stereo not drawn) [Example 43, N-(4-(2-((4-(4-((1-(4-((2,6-dioxopiperidin-3-yl)oxy)phenyl)piperidin-4-yl)methyl)piperazin-1-yl)phenyl)amino)pyrimidin-4-yl)-2-methylbenzyl)-3-isopropoxyazetidine-1-carboxamide] | 83.0 | 100.0 | 100.0 |
| Cc1cc(-c2ccnc(Nc3ccc(C4CCN(CC5CCN(c6ccc(OC7CCC(=O)NC7=O)cc6)CC5)CC4)cc3)n2)ccc1CNC(=O)N1CC(OC(C)C)C1 (stereo not drawn) [Example 47, N-(4-(2-((4-(1-((1-(4-((2,6-dioxopiperidin-3-yl)oxy)phenyl)piperidin-4-yl)methyl)piperidin-4-yl)phenyl)amino)pyrimidin-4-yl)-2-methylbenzyl)-3-isopropoxyazetidine-1-carboxamide] | 22.5 | 93.5 | 99.5 |
| Cc1cc(-c2ccnc(Nc3ccc(N4CCN(CC5CCN(c6ccc(OC7CCC(=O)NC7=O)cc6)CC5)CC4)cc3)n2)ccc1CNC(=O)c1cnn(C(C)C)c1 (stereo not drawn) [Example 48, N-(4-(2-((4-(4-((1-(4-((2,6-dioxopiperidin-3-yl)oxy)phenyl)piperidin-4-yl)methyl)piperazin-1-yl)phenyl)amino)pyrimidin-4-yl)-2-methylbenzyl)-1-isopropyl-1H-pyrazole-4-carboxamide] | 53.5 | 94.5 | 99.0 |
| Cc1cc(-c2ccnc(Nc3ccc(N4CCN(CC5CCN(c6ccc(OC7CCC(=O)NC7=O)cn6)CC5)CC4)cc3)n2)ccc1CNC(=O)N1CC(OC(C)C)C1 (stereo not drawn) [Example 50, N-(4-(2-((4-(4-((1-(5-((2,6-dioxopiperidin-3-yl)oxy)pyridin-2-yl)piperidin-4-yl)methyl)piperazin-1-yl)phenyl)amino)pyrimidin-4-yl)-2-methylbenzyl)-3-isopropoxyazetidine-1-carboxamide] | 19.7 | 82.0 | 99.3 |
| Cc1cc(-c2ccnc(Nc3ccc(C4CCN(CC5CCN(c6ccc(OC7CCC(=O)NC7=O)cn6)CC5)CC4)cc3)n2)ccc1CNC(=O)N1CC(OC(C)C)C1 (stereo not drawn) [Example 51, N-(4-(2-((4-(1-((1-(5-((2,6-dioxopiperidin-3-yl)oxy)pyridin-2-yl)piperidin-4-yl)methyl)piperidin-4-yl)phenyl)amino)pyrimidin-4-yl)-2-methylbenzyl)-3-isopropoxyazetidine-1-carboxamide] | 24.0 | 86.7 | 99.3 |
| Cc1cc(-c2ccnc(Nc3ccc(N4CCN(CC5CCN(c6ccc(NC7CCC(=O)NC7=O)cn6)CC5)CC4)cc3)n2)ccc1CNC(=O)N1CC(OC(C)C)C1 (stereo not drawn) [Example 52, N-(4-(2-((4-(4-((1-(5-((2,6-dioxopiperidin-3-yl)amino)pyridin-2-yl)piperidin-4-yl)methyl)piperazin-1-yl)phenyl)amino)pyrimidin-4-yl)-2-methylbenzyl)-3-isopropoxyazetidine-1-carboxamide] | 24.0 | 92.0 | 99.3 |
| Cc1cc(-c2ccnc(Nc3ccc(C4CCN(CC5CCN(c6ccc(NC7CCC(=O)NC7=O)cn6)CC5)CC4)cc3)n2)ccc1CNC(=O)N1CC(OC(C)C)C1 (stereo not drawn) [Example 53, N-(4-(2-((4-(1-((1-(5-((2,6-dioxopiperidin-3-yl)amino)pyridin-2-yl)piperidin-4-yl)methyl)piperidin-4-yl)phenyl)amino)pyrimidin-4-yl)-2-methylbenzyl)-3-isopropoxyazetidine-1-carboxamide] | 13.3 | 86.7 | 99.3 |

More lines, now with the values ahead:

| BTK degradation (%) 1 nM [%] | BTK degradation (%) 10 nM [%] | BTK degradation (%) 100 nM [%] | SMILES |
| --- | --- | --- | --- |
| 72.5 | 96 | 98.5 | Cc1cc(-c2ccnc(Nc3cnn(C4CCN(CC5CN(c6ccc7c(c6)C(=O)N(C6CCC(=O)NC6=O)C7=O)C5)CC4)c3)n2)ccc1CNC(=O)c1cnn(C(C)(C)C)c1 (stereo not drawn) [Example 38, 1-(tert-butyl)-N-(4-(2-((1-(1-((1-(2-(2,6-dioxopiperidin-3-yl)-1,3-dioxoisoindolin-5-yl)azetidin-3-yl)methyl)piperidin-4-yl)-1H-pyrazol-4-yl)amino)pyrimidin-4-yl)-2-methylbenzyl)-1H-pyrazole-4-carboxamide] |
| 81.5 | 100.0 | 100.0 | Cc1cc(-c2ccnc(Nc3ccc(C4CN(CC5CCN(c6ccc7c(c6)C(=O)N(C6CCC(=O)NC6=O)C7=O)CC5)C4)cc3)n2)ccc1CNC(=O)N1CC(OC(C)C)C1 (stereo not drawn) [Example 41, N-(4-(2-((4-(1-((1-(2-(2,6-dioxopiperidin-3-yl)-1,3-dioxoisoindolin-5-yl)piperidin-4-yl)methyl)azetidin-3-yl)phenyl)amino)pyrimidin-4-yl)-2-methylbenzyl)-3-isopropoxyazetidine-1-carboxamide] |
| 66.0 | 95.0 | 99.0 | Cc1cc(-c2ccnc(Nc3ccc(C4CCN(CC5CN(c6ccc7c(c6)C(=O)N(C6CCC(=O)NC6=O)C7=O)C5)CC4)cc3)n2)ccc1CNC(=O)c1cnn(C(C)C)c1 (stereo not drawn) [Example 44, N-(4-(2-((4-(1-((1-(2-(2,6-dioxopiperidin-3-yl)-1,3-dioxoisoindolin-5-yl)azetidin-3-yl)methyl)piperidin-4-yl)phenyl)amino)pyrimidin-4-yl)-2-methylbenzyl)-1-isopropyl-1H-pyrazole-4-carboxamide] |
| 45.5 | 89.5 | 98.0 | Cc1cc(-c2ccnc(Nc3ccc(C4CCN(CC5CN(c6ccc7c(c6)C(=O)N(C6CCC(=O)NC6=O)C7=O)C5)CC4)cc3)n2)ccc1CNC(=O)c1cnn(C(C)(C)C)c1 (stereo not drawn) [Example 45, 1-(tert-butyl)-N-(4-(2-((4-(1-((1-(2-(2,6-dioxopiperidin-3-yl)-1,3-dioxoisoindolin-5-yl)azetidin-3-yl)methyl)piperidin-4-yl)phenyl)amino)pyrimidin-4-yl)-2-methylbenzyl)-1H-pyrazole-4-carboxamide] |
| 46.5 | 91.0 | 98.0 | Cc1cc(-c2ccnc(Nc3ccc(C4CCN(CC5CN(c6ccc7c(c6)C(=O)N(C6CCC(=O)NC6=O)C7=O)C5)CC4)cc3)n2)ccc1CNC(=O)c1cn(C(C)(C)C)nn1 (stereo not drawn) [Example 46, 1-(tert-butyl)-N-(4-(2-((4-(1-((1-(2-(2,6-dioxopiperidin-3-yl)-1,3-dioxoisoindolin-5-yl)azetidin-3-yl)methyl)piperidin-4-yl)phenyl)amino)pyrimidin-4-yl)-2-methylbenzyl)-1H-1,2,3-triazole-4-carboxamide] |
| 23.0 | 87.0 | 90.5 | Cc1cc(-c2ccnc(Nc3ccc(C4CCN(CC5CCN(c6ccc(OC7CCC(=O)NC7=O)cc6)CC5)CC4)cc3)n2)ccc1CNC(=O)c1cnn(C(C)C)c1 (stereo not drawn) [Example 49, N-(4-(2-((4-(1-((1-(4-((2,6-dioxopiperidin-3-yl)oxy)phenyl)piperidin-4-yl)methyl)piperidin-4-yl)phenyl)amino)pyrimidin-4-yl)-2-methylbenzyl)-1-isopropyl-1H-pyrazole-4-carboxamide] |
